Assay results taken from publication PMC9596378, “Discovery and molecular basis of subtype-selective cyclophilin inhibitors” (Nature Chemical Biology, 2022).
Like-named read-outs stand apart in the source and are kept apart here.

Tests used:
[1] = biological target: T1, CypE (Homo sapiens, UniProt Q9UNP9); assay: Chymotrypsin coupled prolyl-isomerase assay; assay type: biochemical
T1 construct: PPIE (UniProtKB Entry Q9UNP9: residues 131–301); host or cells: E. coli BL21(DE3)
Outline: (§1)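 Recombinant cyclophilin (5 nM final) in 25 mM HEPES pH 7.3, 100 mM NaCl, 0.01% Triton X-100 was preincubated with compound at 2–3 °C. It was then coupled with 25 µM α-chymotrypsin and 5 µM Suc-AAPF-AMC (LiCl/TFE), and AMC fluorescence was followed for 330 s.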

[2] = biological target: T2, CypG (Homo sapiens, UniProt Q13427); assay: Chymotrypsin coupled prolyl-isomerase assay; assay type: biochemical
T2 construct: PPIG (UniProtKB Entry Q13427: residues 1–179); His6 with thrombin site (pET28a LIC leader) (N); host or cells: E. coli BL21(DE3)
T2 sequence (Q13427 1-179): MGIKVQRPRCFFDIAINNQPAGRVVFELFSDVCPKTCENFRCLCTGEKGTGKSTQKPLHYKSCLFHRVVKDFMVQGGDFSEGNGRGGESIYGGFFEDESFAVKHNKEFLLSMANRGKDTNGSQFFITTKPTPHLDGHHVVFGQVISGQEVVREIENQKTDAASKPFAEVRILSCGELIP
Outline: as §1

[3] = biological target: T3, CypC (Homo sapiens, UniProt P45877); assay: Chymotrypsin coupled prolyl-isomerase assay; assay type: biochemical
T3 construct: PPIC (UniProtKB Entry P45877: residues 24–212); host or cells: E. coli BL21(DE3)
T3 sequence (P45877 24-212): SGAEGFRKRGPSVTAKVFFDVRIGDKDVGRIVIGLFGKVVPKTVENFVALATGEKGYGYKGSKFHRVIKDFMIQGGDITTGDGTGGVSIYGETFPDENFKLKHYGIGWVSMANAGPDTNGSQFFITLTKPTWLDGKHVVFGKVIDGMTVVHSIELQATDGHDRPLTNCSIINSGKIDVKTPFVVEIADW
Outline: as §1

[4] = biological target: T4, CypH (Homo sapiens, UniProt O43447); assay: Chymotrypsin coupled prolyl-isomerase assay; assay type: biochemical
T4 construct: PPIH (UniProtKB Entry O43447: residues 1–177); His6 with TEV site (2BT vector leader) (N); made in house; host or cells: E. coli BL21(DE3)
T4 sequence (O43447 whole entry, the tested form may be a part): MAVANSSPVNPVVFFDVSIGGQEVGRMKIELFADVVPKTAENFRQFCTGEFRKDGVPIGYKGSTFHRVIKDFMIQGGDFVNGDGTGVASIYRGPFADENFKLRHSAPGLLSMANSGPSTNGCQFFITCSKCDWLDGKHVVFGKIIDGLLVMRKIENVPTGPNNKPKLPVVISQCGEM
Outline: as §1

[5] = biological target: T5, CypA (Homo sapiens, UniProt P62937); assay: Chymotrypsin coupled prolyl-isomerase assay; assay type: biochemical; settings: read-out: IC50 CypA
T5 construct: PPIA (UniProtKB Entry P62937: residues 1–165); made in house; host or cells: E. coli BL21(DE3)
T5 sequence (P62937 whole entry, the tested form may be a part): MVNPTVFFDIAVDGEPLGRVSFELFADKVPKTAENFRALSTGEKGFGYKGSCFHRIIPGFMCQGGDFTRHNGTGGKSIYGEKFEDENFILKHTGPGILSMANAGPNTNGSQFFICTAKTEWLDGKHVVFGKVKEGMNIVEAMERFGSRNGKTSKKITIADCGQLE
Outline: as §1

[6] = biological target: T6, NKTR (Homo sapiens, UniProt P30414); assay: Chymotrypsin coupled prolyl-isomerase assay; assay type: biochemical
T6 construct: NKTR (UniProtKB Entry P30414: residues 7–179); host or cells: E. coli BL21(DE3)
T6 sequence (P30414 7-179): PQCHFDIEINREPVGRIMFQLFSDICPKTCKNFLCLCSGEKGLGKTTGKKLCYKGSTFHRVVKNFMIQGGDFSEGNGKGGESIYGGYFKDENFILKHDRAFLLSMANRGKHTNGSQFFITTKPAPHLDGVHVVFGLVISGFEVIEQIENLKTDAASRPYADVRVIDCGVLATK
Protocol: (§2) Adapting a previously described protocol[51], with an Agilent Bravo Velocity 11 with a 384ST head, 90 µL assay buffer (25 mM HEPES pH 7.3, 100 mM NaCl, 0.01% Triton X-100) containing 5.28 nM cyclophilin was added into a flat, clear-bottom, black 384-well plate pre-chilled in a Corning CoolBox at 2–3 °C. Five microliters of compound pre-dissolved in 5% DMSO/assay buffer was then added to appropriate wells and incubated at 2–3 °C for 5 min. Five microliters of 0.5 mM α-chymotrypsin from bovine pancreas (Type II, lyophilized powder, Millipore-Sigma) in 20% 1 mM HCl/Assay Buffer was then added to each well and incubated at 2–3 °C for 5 min. […] Using the internal liquid handling system of the FLIPR, 1 µL 0.5 mM Suc-AAPF-AMC (Chymotrypsin Substrate II, Millipore-Sigma) dissolved in 0.55 M LiCl/2,2,2-trifluoroethanol was added to each well, which was then mixed for 5 s, followed by immediate fluorescence measurements every 1 s for 330 s using a 360–380 nm excitation LED module and a 400–460 nm emission filter. Final concentrations of the plate include 5 nM cyclophilin, 0.25% DMSO, 25 µM α-chymotrypsin, 5 µM Suc-AAPF-AMC. Raw fluorescence data was analyzed by non-linear regression analysis with Prism v.9 by fitting one-phase association curves to each well. Analyses were halted after the calculated maximum fluorescent value owing to observed fluorescent bleaching during the sustained fluorescent plateau. Rate constants calculated for each well (s^−1) were then normalized to substrate only (no prolyl-isomerase) and enzyme + substrate only controls. IC50 values were calculated as the value at which 50% inhibition was achieved on the non-linear regression fitted curve of each compound.

[7] = biological target: T7, CypB (Homo sapiens, UniProt P23284); assay: biochemical
T7 construct: PPIB (UniProtKB Entry P23284: residues 34–216); His6 with TEV site (2BT vector leader) (N); made in house; host or cells: E. coli BL21(DE3)
T7 sequence (P23284 34-216): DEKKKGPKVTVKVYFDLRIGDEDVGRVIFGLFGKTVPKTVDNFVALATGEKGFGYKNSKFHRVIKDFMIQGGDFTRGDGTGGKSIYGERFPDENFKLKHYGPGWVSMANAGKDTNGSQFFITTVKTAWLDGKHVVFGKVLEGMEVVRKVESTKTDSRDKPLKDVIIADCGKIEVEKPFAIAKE
Outline: as §1

[8] = biological target: T8, PPIL1 (Homo sapiens, UniProt Q9Y3C6); assay: Chymotrypsin coupled prolyl-isomerase assay; assay type: biochemical
T8 construct: PPIL1 (UniProtKB Entry Q9Y3C6: residues 1–166); made in house; host or cells: E. coli BL21(DE3)
T8 sequence (Q9Y3C6 1-166): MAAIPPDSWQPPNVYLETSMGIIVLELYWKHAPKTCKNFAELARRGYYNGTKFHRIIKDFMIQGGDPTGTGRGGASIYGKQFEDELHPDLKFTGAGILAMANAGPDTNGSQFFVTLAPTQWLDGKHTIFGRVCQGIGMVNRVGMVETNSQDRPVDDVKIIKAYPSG
Protocol: as §2

T1 sequence (Q9UNP9 131-301): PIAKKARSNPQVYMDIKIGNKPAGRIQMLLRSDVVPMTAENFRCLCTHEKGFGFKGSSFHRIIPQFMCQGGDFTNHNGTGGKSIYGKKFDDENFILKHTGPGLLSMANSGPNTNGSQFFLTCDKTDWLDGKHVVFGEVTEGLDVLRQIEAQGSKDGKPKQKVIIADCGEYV

NCCOCCNC(=O)[C@@H]1CCNC(=O)/C=C/C(=O)N2CCC[C@](Cc3ccccc3)(C2)C(=O)N[C@@H](Cc2ccc(-c3ccc(CC(C(=O)O)C(=O)O)cc3)cc2)C(=O)NCc2ccccc2CC(=O)N1 [Compound B52]
IC50 ([1]; Independent replicate 1, read-out: IC50 CypE): 0.21 ± 0.08 µM
IC50 ([1]; Independent replicate 2, read-out: IC50 CypE): 0.4 ± 0.1 µM
IC50 ([1]; Independent replicate 3, read-out: IC50 CypE): 0.3 ± 0.1 µM
IC50 ([1]; Independent replicate 4, read-out: IC50 CypE): 0.36 ± 0.07 µM
IC50 ([1]; wild-type CypE, read-out: Wild-Type Cyclophilin Prolyl Isomerase Inhibition IC50 Values, CypE): 0.31 µM
IC50 ([2]; Independent replicate 1, read-out: IC50 CypG): ~80 µM
IC50 ([2]; Independent replicate 2, read-out: IC50 CypG): > 100 µM
IC50 ([2]; Independent replicate 3, read-out: IC50 CypG): ~80 µM
IC50 ([2]; Independent replicate 4, read-out: IC50 CypG): > 100 µM
IC50 ([2]; prolyl-isomerase inhibition, 5 nM cyclophilin, read-out: IC50 CypG): > 100 µM
IC50 ([2]; prolyl-isomerase inhibition, read-out: IC50 CypG): > 100 µM
IC50 ([2]; wild-type CypG, read-out: Wild-Type Cyclophilin Prolyl Isomerase Inhibition IC50 Values, CypG): > 100 µM
IC50 ([3]; Independent replicate 1, read-out: IC50 CypC): > 100 µM
IC50 ([3]; Independent replicate 2, read-out: IC50 CypC): > 100 µM
IC50 ([3]; Independent replicate 3, read-out: IC50 CypC): > 100 µM
IC50 ([3]; Independent replicate 4, read-out: IC50 CypC): > 100 µM
IC50 ([3]; prolyl-isomerase inhibition, 5 nM cyclophilin, read-out: IC50 CypC): > 100 µM
IC50 ([3]; prolyl-isomerase inhibition, read-out: IC50 CypC): > 100 µM
IC50 ([3]; wild-type CypC, read-out: Wild-Type Cyclophilin Prolyl Isomerase Inhibition IC50 Values, CypC): > 100 µM
IC50 ([4]; Independent replicate 1, read-out: IC50 CypH): > 100 µM
IC50 ([4]; Independent replicate 2, read-out: IC50 CypH): > 100 µM
IC50 ([4]; Independent replicate 3, read-out: IC50 CypH): > 100 µM
IC50 ([4]; Independent replicate 4, read-out: IC50 CypH): > 100 µM
IC50 ([4]; prolyl-isomerase inhibition, 5 nM cyclophilin, read-out: IC50 CypH): > 100 µM
IC50 ([4]; prolyl-isomerase inhibition, read-out: IC50 CypH): > 100 µM
IC50 ([4]; wild-type CypH, read-out: Wild-Type Cyclophilin Prolyl Isomerase Inhibition IC50 Values, CypH): > 100 µM
IC50 ([5]; Independent replicate 2): 0.9 ± 0.1 µM
IC50 ([5]; Independent replicate 3): 0.9 ± 0.3 µM
IC50 ([5]; Independent replicate 4): 1.4 ± 0.5 µM
IC50 ([5]; prolyl-isomerase inhibition, 5 nM cyclophilin): 1.1 µM
IC50 ([6]; Independent replicate 1, read-out: IC50 NKTR): > 100 µM
IC50 ([6]; Independent replicate 2, read-out: IC50 NKTR): > 100 µM
IC50 ([6]; Independent replicate 3, read-out: IC50 NKTR): > 100 µM
IC50 ([6]; Independent replicate 4, read-out: IC50 NKTR): > 100 µM
IC50 ([6]; prolyl-isomerase inhibition, 5 nM cyclophilin, read-out: IC50 NKTR): > 100 µM
IC50 ([6]; prolyl-isomerase inhibition, read-out: IC50 NKTR): > 100 µM
IC50 ([6]; wild-type NKTR, read-out: Wild-Type Cyclophilin Prolyl Isomerase Inhibition IC50 Values, NKTR): > 100 µM
IC50 ([7]; CypB (comparator for CypB E121S), read-out: Mutant Cyclophilin Prolyl Isomerase Inhibition IC50 Values, CypB): 0.2 µM
IC50 ([7]; Independent replicate 1, read-out: IC50 CypB): 0.2 ± 0.05 µM
IC50 ([7]; Independent replicate 2, read-out: IC50 CypB): 0.19 ± 0.03 µM
IC50 ([7]; Independent replicate 3, read-out: IC50 CypB): 0.21 ± 0.04 µM
IC50 ([7]; Independent replicate 4, read-out: IC50 CypB): 0.2 ± 0.1 µM
IC50 ([7]; prolyl-isomerase inhibition, 5 nM cyclophilin, read-out: IC50 CypB): 0.21 µM
IC50 ([7]; prolyl-isomerase inhibition, read-out: IC50 CypB): 0.21 µM
IC50 ([7]; wild-type CypB, read-out: Wild-Type Cyclophilin Prolyl Isomerase Inhibition IC50 Values, CypB): 0.21 µM
IC50 ([8]; Independent replicate 1, read-out: IC50 PPIL1): 5 ± 2 µM
IC50 ([8]; Independent replicate 2, read-out: IC50 PPIL1): 9 ± 3 µM
IC50 ([8]; Independent replicate 3, read-out: IC50 PPIL1): 6 ± 2 µM
IC50 ([8]; Independent replicate 4, read-out: IC50 PPIL1): 5 ± 2 µM
IC50 ([8]; prolyl-isomerase inhibition, 5 nM cyclophilin, read-out: IC50 PPIL1): 6 ± 2 µM
IC50 ([8]; prolyl-isomerase inhibition, read-out: IC50 PPIL1): 6 µM
IC50 ([8]; wild-type PPIL1, read-out: Wild-Type Cyclophilin Prolyl Isomerase Inhibition IC50 Values, PPIL1): 6 µM
